Biological target: T1, human histamine H3 receptor (Homo sapiens, UniProt Q9Y5N1)
T1 construct: endogenous in cells; host or cells: HT1080-Gqαi5 RAGE clone (RAGE-H3), human fibrosarcoma line; integrated RAGE vector pFG8-HH3 supplies exon 1, the cell's own gene supplies the other exons
Assay: Competition radioligand binding assay with [125I]iodoproxyfan on membranes of RAGE-H3 (HT1080-Gqαi5) cells expressing human H3 receptor
Details: ~0.15 nM [125I]iodoproxyfan, 1.5 hrs at room temperature, head does not name the quantity (apparent Ki by Cheng-Prussof)
Procedure: Representative compounds of the present invention that were prepared by the procedures of Examples 1-83 were evaluated in binding assays against cells expressing human H3 receptor by the following procedure.
[^125I]iodoproxyfan (2000 Ci/mmol) was obtained from Amersham Bioscience (Piscataway, N.J.). All other chemicals were either from Sigma-Aldrich (St. Louis, Mo.) or Tocris Cookson Inc. (Ellisville, Mo.).
The human histamine H3 receptor was stably expressed in HT1080 cells containing the chimeric G-protein, Gq[…]i5 (Coward et al., Anal Biochem 1999; 270:242-8). HT1080-Gqαi5 cells were grown in alpha-modified MEM containing 10% fetal bovine serum and 7 μg/ml blasticidin at 37° C. in 5% CO2/95% atmosphere. Cells (4.8×10^9) were irradiated with 50 rads from a ^137Cs source and the pFG8-HH3 RAGE (Random Activation of Gene Expression; see Harrington et al., Nature Biotechnology. 2001; 19:440-45) vector was subsequently integrated into the cells via electroporation (250V, 600 μF, 50Ω). The RAGE vector pFG8-HH3 contained cDNA sequence coding for the first exon (83 amino acids) of human H3 receptor. After electroporation, cells were plated in T75 flasks and grown in alpha-modified MEM. The culture medium was replaced 48 hrs after electroporation with alpha-modified MEM, 10% fetal bovine serum, 500 μg/ml hygromycin B and 3 μg/ml puromycin. Medium was replaced every four days during cell expansion. To identify RAGE activated cells expressing the H3 receptor, pools of approximately 10,000 colonies (5×10^7-1.5×10^8 cells total) were screened by PCR for the desired gene product (using primers specific to the RAGE vector and exon 2 of the H3 receptor). […] Positive 100 cells/well pools were identified by PCR, confirmed by sequencing, and subsequently subcloned to 0.8 cells/well. Once clones expressing the H3 receptor were identified by PCR analysis, assays (FLIPR or radioligand binding) were performed to confirm that the activated gene produced functional protein. The protein expression in the initial clones obtained from the RAGE library was increased by growth in the presence of methotrexate. Since the integrated RAGE vector contains the DHFR gene, such treatment selects for cells that have amplified the genetic locus containing the RAGE insert. Subclones obtained after methotrexate amplification were tested for functional activity in FLIPR assays to identify the clone that was most suitable for HTS. The final HT1080-Gqαi5 RAGE clone (RAGE-H3) expressing the human histamine H3 receptor was grown in alpha-modified MEM containing 10% fetal bovine serum, 3 μg/ml puromycin, 500 μg/ml hygromycin B, 3.2 μM methotrexate at 37° C. in 5% CO2/95% atmosphere.
RAGE-H3 cells (10^9) were washed twice with cold PBS, scraped off the plates, and centrifuged at 1000×g for 5 minutes. Cells were resuspended in ice-cold 10 mM Tris HCl, pH 7.4, containing 5 mM EDTA and protease inhibitor cocktail tablets (Roche Molecular Biochemicals). After incubating on ice for 10 min, the cells were homogenized with a dounce homogenizer or a polytron tissue grinder, and centrifuged at 1000×g for 10 min at 4° C. The resulting supernatant was centrifuged at 32,000×g for 30 min at 4° C. The membrane pellets were resuspended in 50 mM Tris HCl, pH 7.4, and stored at −80° C. until use. Protein concentration was determined by the Bradford method (Bio-Rad Laboratories, CA).
Binding assays were carried out in 96-well polypropylene plates in 50 mM Tris HCl, pH 7.4, containing 1 mM EDTA. Reaction mixtures contained 100 μl of membrane suspension, 50 μl of 4% DMSO, and 50 μl of increasing amounts of [^125I]iodoproxyfan (final concentration 0.0005-1.8 nM for human H3 receptor saturation binding assay). Nonspecific binding was defined by adding 10 μM clobenpropit to the reaction mixtures. […]

T1 sequence (Q9Y5N1 whole entry): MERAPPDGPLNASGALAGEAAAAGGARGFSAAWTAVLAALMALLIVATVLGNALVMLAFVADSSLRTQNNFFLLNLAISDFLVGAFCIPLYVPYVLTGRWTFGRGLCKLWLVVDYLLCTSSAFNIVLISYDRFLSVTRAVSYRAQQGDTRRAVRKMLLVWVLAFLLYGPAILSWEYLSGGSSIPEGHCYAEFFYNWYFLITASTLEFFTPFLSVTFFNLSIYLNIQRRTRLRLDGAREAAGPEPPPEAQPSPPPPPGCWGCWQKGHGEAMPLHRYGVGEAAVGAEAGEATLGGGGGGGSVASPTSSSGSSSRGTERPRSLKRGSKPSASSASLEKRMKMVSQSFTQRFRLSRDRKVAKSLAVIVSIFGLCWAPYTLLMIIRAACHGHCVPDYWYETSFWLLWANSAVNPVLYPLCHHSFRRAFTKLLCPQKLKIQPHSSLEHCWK

Ki: < 10 nM
Structure (SMILES): Cc1c2c(nn1-c1ccc(OCCCN3CCCC3)cc1)[C@H]1CCCC[C@@H]1CC2 (relative stereo) [Example 6, 3-Methyl-2-[4-(3-pyrrolidin-1-ylpropoxy)phenyl]-4,5,5a,6,7,8,9,9a-octahydro-2H-benzo[g]indazole]
